This is an account of results in ChEMBL document CHEMBL1143865, “Pyrazinoindolone inhibitors of MAPKAP-K2” (Bioorg Med Chem Lett, 2008).

Activity calls are given as the source filed them. No cut-off for these calls is given here. A value given as a limit tells only on which side of the number the result lay.

For data set [1], the target named is MAP kinase-activated protein kinase 2 (Homo sapiens, UniProt P49137).
The subject of the next data set is THP-1. The experiment in a line: Inhibition of LPS-induced TNFalpha production in human THP1 cells.
Data set [2] in a line: Solubility at pH 7.4. To be noted: buffer. Format: physicochemical.
A short description of data set [3]: Drug level in mouse plasma at 60 mg/kg, po after 90 mins. Format: ADME, organism-based. The arrangement: dose 60 mg/kg, route oral.
Data set [4] deals with Mus musculus. The experiment in a line: Inhibition of LPS-stimulated TNFalpha production in mouse at 60 mg/kg, po. Format: functional, organism-based. The arrangement: dose 60 mg/kg.
Data set [5] in a line: AUC (0 to infinity) in BALB/c mouse at 1.0 mg/kg, po. The arrangement: time infinity, dose 1 mg/kg, route oral. Format: ADME, organism-based. The following applies: plasma.
Data set [6] has as its system Mus musculus. The experiment in a line: Clearance in BALB/c mouse at 0.5 mg/kg, iv expressed as %Q. Format: ADME, organism-based. The arrangement: dose 0.5 mg/kg, route intravenous. To be noted: in vivo.
The nature of data set [7]: Mean retention time in BALB/c mouse at 0.5 mg/kg, iv. Format: ADME, organism-based. Details: dose 0.5 mg/kg, route intravenous. The following applies: in vivo.
A short description of data set [8]: Oral bioavailability in BALB/c mouse at 1.0 mg/kg. To be noted: in vivo. Format: ADME, organism-based.
Data set [9] is described as follows: AUC (0 to infinity) in BALB/c mouse at 0.5 mg/kg, iv. The arrangement: time infinity, dose 0.5 mg/kg, route intravenous. In kind it is ADME, organism-based. The following applies: plasma.
The nature of data set [10]: Cmax in BALB/c mouse at 1.0 mg/kg, po. Format: ADME, organism-based. Details: dose 1 mg/kg, route oral. The following applies: in vivo.
In data set [11] the target is Glycogen synthase kinase-3 beta (Homo sapiens, UniProt P49841). Description: Inhibition of GSK3-beta.
Data set [12] concerns the target 3-phosphoinositide-dependent protein kinase 1 (Homo sapiens) (UniProt O15530). Description: Inhibition of PDK1 at 10 uM.
Data set [13] concerns the target Rho-associated protein kinase 2 (Homo sapiens) (UniProt O75116). The experiment in a line: Inhibition of ROCK2 at 10 uM.
For data set [14], the target named is T1, Mitogen-activated protein kinase 15 (Homo sapiens) (UniProt Q8TD08).
T1 sequence (whole entry): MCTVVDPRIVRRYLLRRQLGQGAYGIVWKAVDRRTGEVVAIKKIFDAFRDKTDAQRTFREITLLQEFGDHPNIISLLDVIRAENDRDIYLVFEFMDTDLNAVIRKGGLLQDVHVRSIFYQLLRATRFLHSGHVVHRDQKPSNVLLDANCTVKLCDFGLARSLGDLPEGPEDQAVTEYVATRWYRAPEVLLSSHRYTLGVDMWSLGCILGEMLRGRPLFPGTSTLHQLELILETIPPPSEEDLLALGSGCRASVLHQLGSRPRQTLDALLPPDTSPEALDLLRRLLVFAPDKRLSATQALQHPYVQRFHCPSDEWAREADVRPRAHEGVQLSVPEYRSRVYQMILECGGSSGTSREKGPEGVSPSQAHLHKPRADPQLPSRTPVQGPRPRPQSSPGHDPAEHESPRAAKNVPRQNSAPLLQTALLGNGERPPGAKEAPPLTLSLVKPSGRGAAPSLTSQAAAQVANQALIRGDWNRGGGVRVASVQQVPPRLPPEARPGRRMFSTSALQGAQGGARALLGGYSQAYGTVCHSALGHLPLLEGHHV
The experiment in a line: Inhibition of ERK8 at 10 uM.

For data set [15], the target named is Mitogen-activated protein kinase 1 (Homo sapiens, UniProt P28482). Description: Inhibition of Erk2.
The target of data set [16] is Mitogen-activated protein kinase kinase kinase 14 (Homo sapiens, UniProt Q99558). The experiment in a line: Inhibition of NIK.
Data set [17] deals with T2, Lymphokine-activated killer T-cell-originated protein kinase (Homo sapiens) (UniProt Q96KB5).
T2 sequence (whole entry): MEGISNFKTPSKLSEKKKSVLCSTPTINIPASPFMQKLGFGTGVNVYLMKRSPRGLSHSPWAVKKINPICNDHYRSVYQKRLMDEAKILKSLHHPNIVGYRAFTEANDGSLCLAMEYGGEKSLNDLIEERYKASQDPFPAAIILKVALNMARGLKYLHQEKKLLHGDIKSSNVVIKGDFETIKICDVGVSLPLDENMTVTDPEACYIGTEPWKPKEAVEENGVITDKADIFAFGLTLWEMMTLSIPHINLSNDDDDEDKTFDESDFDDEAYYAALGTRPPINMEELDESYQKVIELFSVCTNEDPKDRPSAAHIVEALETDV
The experiment in a line: Inhibition of PBK at 10 uM.

The target of data set [18] is SRSF protein kinase 1 (Homo sapiens) (UniProt Q96SB4). The experiment in a line: Inhibition of SRPK1 at 10 uM.
Data set [19] is described as follows: Inhibition of AMPK at 10 uM.
The nature of data set [20]: Inhibition of MAPKAP-K1.
The target of data set [21] is T3, Serine/threonine-protein kinase 3 (Homo sapiens) (UniProt Q13188).
T3 sequence (whole entry): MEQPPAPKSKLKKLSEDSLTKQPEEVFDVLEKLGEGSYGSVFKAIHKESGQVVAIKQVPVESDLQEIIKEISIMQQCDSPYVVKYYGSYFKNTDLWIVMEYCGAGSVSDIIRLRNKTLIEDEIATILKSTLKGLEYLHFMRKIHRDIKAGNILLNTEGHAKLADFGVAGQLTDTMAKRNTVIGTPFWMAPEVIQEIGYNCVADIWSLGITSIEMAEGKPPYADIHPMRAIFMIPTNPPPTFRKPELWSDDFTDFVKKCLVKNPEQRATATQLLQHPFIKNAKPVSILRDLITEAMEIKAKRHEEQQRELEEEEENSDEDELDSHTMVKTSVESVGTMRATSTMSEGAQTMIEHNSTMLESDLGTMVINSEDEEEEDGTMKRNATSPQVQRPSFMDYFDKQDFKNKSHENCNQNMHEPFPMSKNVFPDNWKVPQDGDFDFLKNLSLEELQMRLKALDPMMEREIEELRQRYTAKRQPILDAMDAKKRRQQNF
The experiment in a line: Inhibition of MST2 at 10 uM.

In data set [22] the target is Dual specificity tyrosine-phosphorylation-regulated kinase 1A (Homo sapiens) (UniProt Q13627). The experiment in a line: Inhibition of DYRK1A at 10 uM.
Data set [23] in a line: Inhibition of MNK2alpha at 10 uM.
Data set [24] deals with Dual specificity protein kinase CLK1 (Homo sapiens, UniProt P49759). The experiment in a line: Inhibition of CLK1.
For data set [25], the target named is Serine/threonine-protein kinase Chk2 (Homo sapiens) (UniProt O96017). The experiment in a line: Inhibition of CHK2 at 10 uM.
In data set [26] the target is T4, MAP kinase-activated protein kinase 5 (Homo sapiens) (UniProt Q8IW41).
T4 sequence (whole entry): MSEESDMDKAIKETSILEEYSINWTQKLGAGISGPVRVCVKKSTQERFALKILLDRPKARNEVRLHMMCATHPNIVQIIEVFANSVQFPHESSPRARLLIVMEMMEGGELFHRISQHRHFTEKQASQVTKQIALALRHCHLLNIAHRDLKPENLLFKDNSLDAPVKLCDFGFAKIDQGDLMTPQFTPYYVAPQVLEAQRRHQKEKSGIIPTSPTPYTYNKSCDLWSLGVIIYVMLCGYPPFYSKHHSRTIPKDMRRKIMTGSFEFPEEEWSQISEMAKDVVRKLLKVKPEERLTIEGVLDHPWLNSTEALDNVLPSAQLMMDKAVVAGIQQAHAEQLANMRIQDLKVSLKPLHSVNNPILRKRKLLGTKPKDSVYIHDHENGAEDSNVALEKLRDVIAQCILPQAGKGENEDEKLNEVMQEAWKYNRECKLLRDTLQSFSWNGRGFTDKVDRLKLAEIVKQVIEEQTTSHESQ
The experiment in a line: Inhibition of PRAK at 10 uM.

Sequence of MAP kinase-activated protein kinase 2 (P49137 whole entry): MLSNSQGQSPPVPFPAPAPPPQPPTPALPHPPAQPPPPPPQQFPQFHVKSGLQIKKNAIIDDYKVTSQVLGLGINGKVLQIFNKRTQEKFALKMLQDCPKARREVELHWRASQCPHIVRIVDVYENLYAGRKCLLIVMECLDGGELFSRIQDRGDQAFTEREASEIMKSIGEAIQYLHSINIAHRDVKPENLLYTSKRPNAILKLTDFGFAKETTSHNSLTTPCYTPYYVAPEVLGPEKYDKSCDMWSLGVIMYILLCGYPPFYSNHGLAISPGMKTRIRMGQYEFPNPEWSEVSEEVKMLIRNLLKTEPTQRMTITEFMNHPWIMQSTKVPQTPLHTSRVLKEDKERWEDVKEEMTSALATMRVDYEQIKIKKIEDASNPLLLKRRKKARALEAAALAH
Sequence of Mitogen-activated protein kinase kinase kinase 14 (Q99558 whole entry): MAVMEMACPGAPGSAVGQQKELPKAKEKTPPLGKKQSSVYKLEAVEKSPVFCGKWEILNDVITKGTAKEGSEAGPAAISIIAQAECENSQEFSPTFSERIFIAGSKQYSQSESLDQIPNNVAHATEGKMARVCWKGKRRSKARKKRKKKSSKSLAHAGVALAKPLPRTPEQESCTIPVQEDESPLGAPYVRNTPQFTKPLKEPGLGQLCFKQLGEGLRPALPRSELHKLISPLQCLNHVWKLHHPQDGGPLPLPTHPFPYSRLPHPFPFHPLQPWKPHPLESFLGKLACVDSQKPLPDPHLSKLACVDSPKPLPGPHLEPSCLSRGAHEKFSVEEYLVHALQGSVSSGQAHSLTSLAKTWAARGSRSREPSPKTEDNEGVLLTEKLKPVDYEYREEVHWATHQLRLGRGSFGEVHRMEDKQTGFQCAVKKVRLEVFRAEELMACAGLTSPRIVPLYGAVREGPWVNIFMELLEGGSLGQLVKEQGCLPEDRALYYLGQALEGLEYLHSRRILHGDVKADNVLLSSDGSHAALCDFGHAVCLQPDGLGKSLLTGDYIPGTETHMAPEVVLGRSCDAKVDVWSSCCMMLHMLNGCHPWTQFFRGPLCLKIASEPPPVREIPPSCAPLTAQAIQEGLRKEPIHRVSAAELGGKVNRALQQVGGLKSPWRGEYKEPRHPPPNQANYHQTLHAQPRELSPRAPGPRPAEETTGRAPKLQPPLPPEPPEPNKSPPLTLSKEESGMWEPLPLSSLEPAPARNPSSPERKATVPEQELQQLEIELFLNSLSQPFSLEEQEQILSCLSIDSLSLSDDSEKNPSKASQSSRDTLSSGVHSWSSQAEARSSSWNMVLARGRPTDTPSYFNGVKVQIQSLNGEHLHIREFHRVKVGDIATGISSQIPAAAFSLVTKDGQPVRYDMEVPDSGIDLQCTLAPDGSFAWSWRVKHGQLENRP
Sequence of Rho-associated protein kinase 2 (Homo sapiens) (O75116 whole entry, looked up): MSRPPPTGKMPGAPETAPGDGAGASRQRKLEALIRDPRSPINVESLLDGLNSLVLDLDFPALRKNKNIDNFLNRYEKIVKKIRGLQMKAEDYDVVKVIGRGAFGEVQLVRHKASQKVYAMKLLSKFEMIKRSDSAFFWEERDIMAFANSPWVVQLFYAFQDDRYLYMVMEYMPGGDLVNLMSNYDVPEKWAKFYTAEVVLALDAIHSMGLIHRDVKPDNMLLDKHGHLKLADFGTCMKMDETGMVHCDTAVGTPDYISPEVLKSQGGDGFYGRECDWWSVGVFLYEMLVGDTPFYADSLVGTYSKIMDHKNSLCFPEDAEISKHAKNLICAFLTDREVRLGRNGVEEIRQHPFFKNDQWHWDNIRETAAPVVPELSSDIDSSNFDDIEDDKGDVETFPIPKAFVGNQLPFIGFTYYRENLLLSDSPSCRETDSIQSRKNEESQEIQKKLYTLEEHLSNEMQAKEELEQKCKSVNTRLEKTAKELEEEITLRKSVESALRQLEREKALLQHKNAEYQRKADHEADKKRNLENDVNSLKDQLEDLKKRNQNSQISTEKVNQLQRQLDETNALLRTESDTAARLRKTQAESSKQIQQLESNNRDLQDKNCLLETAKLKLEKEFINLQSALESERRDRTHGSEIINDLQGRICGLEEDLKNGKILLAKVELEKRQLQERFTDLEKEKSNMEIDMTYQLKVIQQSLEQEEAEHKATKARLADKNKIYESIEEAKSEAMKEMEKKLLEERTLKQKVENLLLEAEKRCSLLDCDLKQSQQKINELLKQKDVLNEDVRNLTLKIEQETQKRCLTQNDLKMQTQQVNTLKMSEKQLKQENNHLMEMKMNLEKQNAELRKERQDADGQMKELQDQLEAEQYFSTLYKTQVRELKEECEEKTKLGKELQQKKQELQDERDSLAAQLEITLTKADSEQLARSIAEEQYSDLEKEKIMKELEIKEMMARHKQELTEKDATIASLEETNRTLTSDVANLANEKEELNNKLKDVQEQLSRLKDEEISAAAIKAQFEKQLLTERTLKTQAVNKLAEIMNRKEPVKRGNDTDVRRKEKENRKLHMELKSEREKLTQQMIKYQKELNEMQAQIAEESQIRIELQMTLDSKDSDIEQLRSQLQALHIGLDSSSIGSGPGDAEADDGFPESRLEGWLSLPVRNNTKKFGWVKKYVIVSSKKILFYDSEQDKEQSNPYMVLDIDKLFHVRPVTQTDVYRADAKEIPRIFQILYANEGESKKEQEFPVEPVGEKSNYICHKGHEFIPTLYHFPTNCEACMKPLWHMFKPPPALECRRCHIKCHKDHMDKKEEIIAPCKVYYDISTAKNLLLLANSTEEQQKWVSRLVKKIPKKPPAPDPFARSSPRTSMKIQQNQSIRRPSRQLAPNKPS
Sequence of Glycogen synthase kinase-3 beta (P49841 whole entry): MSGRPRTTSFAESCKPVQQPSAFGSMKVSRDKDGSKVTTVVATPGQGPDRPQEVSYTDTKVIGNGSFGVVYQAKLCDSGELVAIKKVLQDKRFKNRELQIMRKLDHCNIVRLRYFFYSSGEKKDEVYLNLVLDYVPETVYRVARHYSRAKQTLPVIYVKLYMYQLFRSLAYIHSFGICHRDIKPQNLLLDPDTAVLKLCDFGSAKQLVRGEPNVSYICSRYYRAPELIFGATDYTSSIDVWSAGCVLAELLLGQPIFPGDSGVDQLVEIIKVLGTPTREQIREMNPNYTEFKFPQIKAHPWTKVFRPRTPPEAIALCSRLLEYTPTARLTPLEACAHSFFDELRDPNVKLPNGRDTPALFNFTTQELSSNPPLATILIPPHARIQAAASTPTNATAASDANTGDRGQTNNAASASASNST
Sequence of Dual specificity protein kinase CLK1 (P49759 whole entry): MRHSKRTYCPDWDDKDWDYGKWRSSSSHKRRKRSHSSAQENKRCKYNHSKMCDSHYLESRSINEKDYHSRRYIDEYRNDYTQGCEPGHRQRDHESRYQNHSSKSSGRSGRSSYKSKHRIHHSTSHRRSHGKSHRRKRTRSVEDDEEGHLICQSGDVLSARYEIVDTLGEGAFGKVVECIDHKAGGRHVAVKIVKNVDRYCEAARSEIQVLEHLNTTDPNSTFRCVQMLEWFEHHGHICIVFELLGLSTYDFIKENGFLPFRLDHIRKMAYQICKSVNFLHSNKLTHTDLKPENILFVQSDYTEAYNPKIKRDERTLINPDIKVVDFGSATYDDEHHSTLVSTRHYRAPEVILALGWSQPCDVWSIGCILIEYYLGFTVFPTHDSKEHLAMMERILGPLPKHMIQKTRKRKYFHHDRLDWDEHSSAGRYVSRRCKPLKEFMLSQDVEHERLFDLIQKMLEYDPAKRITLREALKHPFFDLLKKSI
Sequence of SRSF protein kinase 1 (Homo sapiens) (Q96SB4 whole entry): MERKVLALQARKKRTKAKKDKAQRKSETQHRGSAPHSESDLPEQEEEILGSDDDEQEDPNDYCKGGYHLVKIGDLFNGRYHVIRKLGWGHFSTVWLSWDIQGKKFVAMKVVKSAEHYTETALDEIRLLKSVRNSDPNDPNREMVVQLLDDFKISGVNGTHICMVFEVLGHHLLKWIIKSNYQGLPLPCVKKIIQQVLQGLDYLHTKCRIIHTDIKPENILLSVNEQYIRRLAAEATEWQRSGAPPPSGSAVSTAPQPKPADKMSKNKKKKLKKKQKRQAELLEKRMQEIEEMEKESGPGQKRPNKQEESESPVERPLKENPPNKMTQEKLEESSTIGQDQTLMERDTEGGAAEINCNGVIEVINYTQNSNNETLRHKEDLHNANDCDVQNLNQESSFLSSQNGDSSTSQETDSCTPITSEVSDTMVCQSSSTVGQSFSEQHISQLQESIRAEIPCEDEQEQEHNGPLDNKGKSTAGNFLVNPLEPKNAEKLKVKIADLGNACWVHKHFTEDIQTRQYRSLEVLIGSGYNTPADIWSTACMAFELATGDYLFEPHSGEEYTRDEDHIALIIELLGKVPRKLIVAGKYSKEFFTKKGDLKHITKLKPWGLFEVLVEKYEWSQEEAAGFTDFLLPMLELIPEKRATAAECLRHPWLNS
Sequence of 3-phosphoinositide-dependent protein kinase 1 (Homo sapiens) (O15530 whole entry, looked up): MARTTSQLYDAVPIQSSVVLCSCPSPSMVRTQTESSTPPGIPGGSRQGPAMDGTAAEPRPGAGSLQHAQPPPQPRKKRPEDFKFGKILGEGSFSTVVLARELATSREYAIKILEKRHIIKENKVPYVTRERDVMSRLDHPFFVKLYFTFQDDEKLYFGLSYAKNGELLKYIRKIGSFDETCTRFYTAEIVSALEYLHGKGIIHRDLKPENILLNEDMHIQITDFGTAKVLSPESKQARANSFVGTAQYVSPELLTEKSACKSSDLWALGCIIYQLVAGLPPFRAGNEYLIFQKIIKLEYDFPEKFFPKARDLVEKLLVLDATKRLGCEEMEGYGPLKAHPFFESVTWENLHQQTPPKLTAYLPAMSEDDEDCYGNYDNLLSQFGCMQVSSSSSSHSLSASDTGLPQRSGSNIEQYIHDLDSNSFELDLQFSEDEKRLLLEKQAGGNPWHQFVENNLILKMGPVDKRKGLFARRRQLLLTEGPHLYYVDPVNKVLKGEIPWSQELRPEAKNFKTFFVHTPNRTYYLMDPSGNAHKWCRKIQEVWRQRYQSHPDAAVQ

`CC1CNC(=O)c2cc3ccc(C(=O)Nc4nc(C(=O)NCC(C)(C)C)cs4)cc3n21` (stereo unspecified): the IC50 in [1] was found to be 46 nM; with THP-1, 2700 nM.

`CC1CNC(=O)c2cc3ccc(C(=O)Nc4nc(C(=O)NC5CCN(Cc6ccccc6)CC5)cs4)cc3n21` (stereo unspecified): in data set [2], the solubility was over 30 µg/mL. In the data set with THP-1, 1600 nM corresponded to half-maximal inhibition (IC50).

Regarding `CC1CNC(=O)c2cc3ccc(C(=O)Nc4nc(C(=O)NC5CCN(CC(C)(C)C)CC5)cs4)cc3n21` (stereo unspecified), the concentration at 1.5 h in [3] came out at 690 nM. Also, the result in the data set on Mus musculus [4] was inactive. This compound returned a solubility in data set [2] of over 30 µg/mL. In the data set with THP-1, this compound had an IC50 of 735 nM.

The compound `CN1CCC(NC(=O)c2csc(NC(=O)c3ccc4cc5n(c4c3)C3(CCC3)CNC5=O)n2)CC1` registered an IC50 in the data set on THP-1 of 1700 nM.

With `CC1CNC(=O)c2cc3ccc(C(=O)Nc4nc(C(=O)NC5CCN(C)CC5)cs4)cc3n21` (stereo unspecified), in the data set on THP-1, the half-inhibitory concentration (IC50) was over 5000 nM.

As for `CC1(C)CNC(=O)c2cc3ccc(C(=O)Nc4nc(C(=O)NC5CCN(Cc6ccccc6)CC5)cs4)cc3n21`, inhibition in the data set on THP-1 was half-maximal at 900 nM (IC50).

For `CC1CNC(=O)c2cc3ccc(C(=O)Nc4nc(C(=O)NC5CCCCC5)cs4)cc3n21` (stereo unspecified), the values for the AUC(0-inf) in data set [5] and in [9] were 115 ng·h/mL and 535 ng·h/mL, respectively. Also, the “CL(%Q)” value in the data set with Mus musculus [6] came out at 18%. The compound also gave a mean residence time (MRT) in data set [7] of 2 h. The IC50 in [1] came to 20 nM; with THP-1, 1400 nM. Further, in data set [8], the bioavailability turned out to be 11%. The same compound displayed a solubility in [2] of under 0.1 µg/mL. In [10], this compound displayed a peak concentration (Cmax) of 80 nM.

`CN1CCC(NC(=O)c2csc(NC(=O)c3ccc4cc5n(c4c3)C(C)(C)CNC5=O)n2)CC1` came in with an IC50 in the data set with THP-1 of 2400 nM.

`CC(C)CN1CCC(NC(=O)c2csc(NC(=O)c3ccc4cc5n(c4c3)C(C)CNC5=O)n2)CC1` (stereo unspecified) gave a solubility in data set [2] of over 30 µg/mL. This compound also had an IC50 in the data set with THP-1 of 1670 nM.

`O=C(Nc1nc(C(=O)NC2CCN(Cc3ccccc3)CC2)cs1)c1ccc2cc3n(c2c1)C1(CCC1)CNC3=O` displayed an IC50 in the data set with THP-1 of 520 nM.

Consider `CC1CNC(=O)c2cc3ccc(C(=O)Nc4nc(C(=O)NC5CCOCC5)cs4)cc3n21` (stereo unspecified), for which the values for the IC50 (in data set [1]; in the data set with THP-1) were 12 nM and 5800 nM, respectively.

As to `CC(C)(C)CN1CCC(NC(=O)c2csc(NC(=O)c3ccc4cc5n(c4c3)C3(CCC3)CNC5=O)n2)CC1`, the IC50 was 920 nM in data set [11]; over 3000 nM in data set [15]; 480 nM in [16]; 25 nM in data set [20]; 93 nM in data set [24]; 300 nM with THP-1. For the same compound, the inhibition in data set [12] was 92%; in data set [13], 63%; in [14], 82%; in [17], 75%; in [18], 60%; in data set [19], 98%. For the same compound, the inhibition is 86% in data set [21]; 94% in [22]; 80% in data set [23]; 84% in [25]; 98% in [26]. For the same compound, the AUC(0-inf) in data set [5] was 446 ng·h/mL; in [9], 165 ng·h/mL. In addition, the “CL(%Q)” value in the data set on Mus musculus [6] stood at 30%. In data set [7], this compound returned an MRT of 6.1 h. In data set [8], this compound had a bioavailability of over 100%. The solubility in [2] is over 96 µg/mL. In addition, the concentration in [10] peaked (Cmax) at 60 nM.

For `CCN1CCC(NC(=O)c2csc(NC(=O)c3ccc4cc5n(c4c3)C(C)CNC5=O)n2)CC1` (stereo unspecified), the IC50 in [1] came to 7 nM; in the data set on THP-1, 8900 nM. In addition, the solubility in data set [2] is over 30 µg/mL.

Consider `CC(C)(C)CN1CCC(NC(=O)c2csc(NC(=O)c3ccc4cc5n(c4c3)C(C)(C)CNC5=O)n2)CC1`, for which the IC50 with THP-1 stood at 430 nM.

Take `CC1(C)CNC(=O)c2cc3ccc(C(=O)Nc4nc(C(=O)NC5CCCCC5)cs4)cc3n21`: the IC50 in [1] was found to be 19 nM; in the data set with THP-1, 1000 nM.

The compound `CC1CNC(=O)c2[nH]c3ccc(C(=O)Nc4nc(C(=O)NC5CCN(C)CC5)cs4)cc3c21` (stereo unspecified) returned an IC50 in the data set on THP-1 of over 5000 nM.

For `CC1CCC(NC(=O)c2csc(NC(=O)c3ccc4cc5n(c4c3)C(C)CNC5=O)n2)CC1` (stereo unspecified), the IC50 in data set [1] worked out at 45 nM; with THP-1, 1800 nM.

As to `CC1CNC(=O)c2[nH]c3ccc(C(=O)Nc4nc(C(=O)NC5CCCCC5)cs4)cc3c21` (stereo unspecified), the AUC(0-inf) in [5] worked out at 88 ng·h/mL; in data set [9], 525 ng·h/mL. Also, the “CL(%Q)” value in the data set on Mus musculus [6] was found to be 18%. This compound also registered an MRT in [7] of 0.8 h. Also, in data set [8], the bioavailability was 8%. The compound also displayed a solubility in data set [2] of under 0.1 µg/mL. In data set [10], this compound had a Cmax of 60 nM.
